How the values were obtained:
Assay type in all cases: in vivo
[1] = test system: barnyardgrass (Echinochloa crus-galli); assay: Test A preemergence, directed soil spray, visual injury rating; conditions: approx. 10 d, 0 = no effect, 100 = complete control
Source text: (§1) Seeds of plant species selected from barnyardgrass (Echinochloa crus-galli), kochia (Kochia scoparia), ragweed (common ragweed, Ambrosia elation), ryegrass, Italian (Italian ryegrass, Lolium multiflorum), foxtail, giant (giant foxtail, Setaria faberii), and pigweed (Amaranthus retroflexus), were planted into a blend of loam soil and sand and treated preemergence with a directed soil spray using test chemicals formulated in a non-phytotoxic solvent mixture which included a surfactant. At the same time, plants selected from these weed species and also blackgrass (Alopecurus myosuroides), galium (catchweed bedstraw, Galium aparine), wheat (Triticum aestivum), and corn (Zea mays) were planted in pots containing the same blend of loam soil and sand and treated with postemergence applications of test chemicals formulated in the same manner. Plants ranged in height from 2 to 10 cm and were in the one- to two-leaf stage for the postemergence treatment. Treated plants and untreated controls were maintained in a greenhouse for approximately 10 d, after which time all treated plants were compared to untreated controls and visually evaluated for injury. Plant response ratings, summarized in Table A, are based on a 0 to 100 scale where 0 is no effect and 100 is complete control. A dash (-) response means no test result.

[2] = test system: foxtail, giant (giant foxtail, Setaria faberii); assay: as above; conditions: approx. 10 d, 0 = no effect, 100 = complete control
Source text: as §1

kochia (Kochia scoparia) [3] = assay: as above; conditions: approx. 10 d, 0 = no effect, 100 = complete control
Source text: as §1

[4] = test system: pigweed (Amaranthus retroflexus); assay: as above; conditions: approx. 10 d, 0 = no effect, 100 = complete control
Source text: as §1

[5] = test system: ragweed (common ragweed, Ambrosia elation); assay: as above; conditions: approx. 10 d, 0 = no effect, 100 = complete control
Source text: as §1

[6] = test system: ryegrass, Italian (Italian ryegrass, Lolium multiflorum); assay: as above; conditions: approx. 10 d, 0 = no effect, 100 = complete control
Source text: as §1

[7] = test system: barnyardgrass (Echinochloa crus-galli); assay: Test A postemergence application, visual injury rating; conditions: approx. 10 d, 0 = no effect, 100 = complete control
Source text: as §1

[8] = test system: blackgrass (Alopecurus myosuroides); assay: as above; conditions: approx. 10 d, 0 = no effect, 100 = complete control
Source text: as §1

corn (Zea mays) = assay: as above; conditions: approx. 10 d, 0 = no effect, 100 = complete control
Source text: as §1

[9] = test system: foxtail, giant (giant foxtail, Setaria faberii); assay: as above; conditions: approx. 10 d, 0 = no effect, 100 = complete control
Source text: as §1

[10] = test system: galium (catchweed bedstraw, Galium aparine); assay: as above; conditions: approx. 10 d, 0 = no effect, 100 = complete control
Source text: as §1

kochia (Kochia scoparia) [11] = assay: as above; conditions: approx. 10 d, 0 = no effect, 100 = complete control
Source text: as §1

[12] = test system: pigweed (Amaranthus retroflexus); assay: as above; conditions: approx. 10 d, 0 = no effect, 100 = complete control
Source text: as §1

[13] = test system: ragweed (common ragweed, Ambrosia elation); assay: as above; conditions: approx. 10 d, 0 = no effect, 100 = complete control
Source text: as §1

[14] = test system: ryegrass, Italian (Italian ryegrass, Lolium multiflorum); assay: as above; conditions: approx. 10 d, 0 = no effect, 100 = complete control
Source text: as §1

[15] = test system: wheat (Triticum aestivum); assay: as above; conditions: approx. 10 d, 0 = no effect, 100 = complete control
Source text: as §1

[16] = test system: barnyardgrass (Echinochloa crus-galli); assay: Test B flooded paddy test, visual plant response rating; conditions: applied to paddy water at 2-leaf stage, rated after 13 to 15 days, scale 0 to 100, 0 is no effect, 100 is complete control
Source text: (§2) At time of treatment, test pots were flooded to 3 cm above the soil surface, treated by application of test compounds directly to the paddy water, and then maintained at that water depth for the duration of the test. Treated plants and controls were maintained in a greenhouse for 13 to 15 days, after which time all species were compared to controls and visually evaluated. Plant response ratings, summarized in Table B, are based on a scale of 0 to 100 where 0 is no effect and 100 is complete control. A dash (-) response means no test result.

[17] = test system: ducksalad (Heteranthera limosa); assay: as above; conditions: applied to paddy water at 2-leaf stage, rated after 13 to 15 days, scale 0 to 100, 0 is no effect, 100 is complete control
Source text: as §2

rice (Oryza sativa) = assay: as above; conditions: applied to paddy water at 2-leaf stage, rated after 13 to 15 days, scale 0 to 100, 0 is no effect, 100 is complete control
Source text: as §2

[18] = test system: sedge, umbrella (small-flower umbrella sedge, Cyperus difformis); assay: as above; conditions: applied to paddy water at 2-leaf stage, rated after 13 to 15 days, scale 0 to 100, 0 is no effect, 100 is complete control
Source text: as §2

**Q.** Which “Barnyardgrass plant response rating (0 to 100 scale)” value (“Barnyardgrass plant response rating” for short) ([1]; 125 g ai/ha) does the source give for `O=C(Nc1ccccc1F)C1C2=NCCCN2CC1c1cccc(C(F)(F)F)c1` (stereo not drawn) [Compound 1] here?
**A.** 0

**Q.** What about the “Barnyardgrass plant response rating” value ([1]; 500 g ai/ha) of the same molecule?
**A.** 70

**Q.** And the “Foxtail, Giant plant response rating (0 to 100 scale)” value (“Foxtail, Giant plant response rating” below) ([2]; 125 g ai/ha)?
**A.** 0

**Q.** And the “Foxtail, Giant plant response rating” value ([2]; 500 g ai/ha)?
**A.** 60

**Q.** And the “Kochia plant response rating (0 to 100 scale)” value (“Kochia plant response rating” below) (kochia (Kochia scoparia) [3]; 125 g ai/ha)?
**A.** 0

**Q.** And the “Kochia plant response rating” value (kochia (Kochia scoparia) [3]; 500 g ai/ha)?
**A.** 0

**Q.** What about the “Pigweed plant response rating (0 to 100 scale)” value (“Pigweed plant response rating” below) ([4]; 125 g ai/ha) of the same molecule?
**A.** 0

**Q.** And the “Pigweed plant response rating” value ([4]; 500 g ai/ha)?
**A.** 0

**Q.** And the “Ragweed plant response rating (0 to 100 scale)” value (“Ragweed plant response rating” for short) ([5]; 125 g ai/ha)?
**A.** 0

**Q.** And the “Ragweed plant response rating” value ([5]; 500 g ai/ha)?
**A.** 0

**Q.** And the “Ryegrass, Italian plant response rating (0 to 100 scale)” value (from here on “Ryegrass, Italian plant response rating”) ([6]; 125 g ai/ha)?
**A.** 0

**Q.** What about the “Ryegrass, Italian plant response rating” value ([6]; 500 g ai/ha) of the same molecule?
**A.** 0

**Q.** What about the “Barnyardgrass plant response rating” value ([7]; 125 g ai/ha) of the same molecule?
**A.** 0

**Q.** And the “Barnyardgrass plant response rating” value ([7]; 500 g ai/ha)?
**A.** 60

**Q.** What about the “Blackgrass plant response rating (0 to 100 scale)” value (“Blackgrass plant response rating” below) ([8]; 125 g ai/ha) of the same molecule?
**A.** 0

**Q.** What about the “Blackgrass plant response rating” value ([8]; 500 g ai/ha) of the same molecule?
**A.** 0

**Q.** What about the “Corn plant response rating (0 to 100 scale)” value (“Corn plant response rating” below) (corn (Zea mays); 125 g ai/ha) of the same molecule?
**A.** 0

**Q.** And the “Corn plant response rating” value (corn (Zea mays); 500 g ai/ha)?
**A.** 20

**Q.** What about the “Foxtail, Giant plant response rating” value ([9]; 125 g ai/ha) of the same molecule?
**A.** 0

**Q.** And the “Foxtail, Giant plant response rating” value ([9]; 500 g ai/ha)?
**A.** 40

**Q.** And the “Galium plant response rating (0 to 100 scale)” value (from here on “Galium plant response rating”) ([10]; 125 g ai/ha)?
**A.** 0

**Q.** What about the “Galium plant response rating” value ([10]; 500 g ai/ha) of the same molecule?
**A.** 0

**Q.** What about the “Kochia plant response rating” value (kochia (Kochia scoparia) [11]; 125 g ai/ha) of the same molecule?
**A.** 0

**Q.** And the “Kochia plant response rating” value (kochia (Kochia scoparia) [11]; 500 g ai/ha)?
**A.** 0

**Q.** And the “Pigweed plant response rating” value ([12]; 125 g ai/ha)?
**A.** 0

**Q.** And the “Pigweed plant response rating” value ([12]; 500 g ai/ha)?
**A.** 0

**Q.** What about the “Ragweed plant response rating” value ([13]; 125 g ai/ha) of the same molecule?
**A.** 0

**Q.** And the “Ragweed plant response rating” value ([13]; 500 g ai/ha)?
**A.** 0

**Q.** And the “Ryegrass, Italian plant response rating” value ([14]; 125 g ai/ha)?
**A.** 0

**Q.** What about the “Ryegrass, Italian plant response rating” value ([14]; 500 g ai/ha) of the same molecule?
**A.** 0

**Q.** And the “Wheat plant response rating (0 to 100 scale)” value (“Wheat plant response rating” for short) ([15]; 125 g ai/ha)?
**A.** 0

**Q.** What about the “Wheat plant response rating” value ([15]; 500 g ai/ha) of the same molecule?
**A.** 0

**Q.** And the “Plant response rating, Flood, Barnyardgrass” value ([16]; 250 g ai/ha)?
**A.** 0

**Q.** What about the “Plant response rating, Flood, Ducksalad” value ([17]; 250 g ai/ha) of the same molecule?
**A.** 70

**Q.** And the “Plant response rating, Flood, Rice” value (rice (Oryza sativa); 250 g ai/ha)?
**A.** 0

**Q.** And the “Plant response rating, Flood, Sedge, Umbrella” value ([18]; 250 g ai/ha)?
**A.** 50

**Q.** `O=C(Nc1ccccc1F)C1c2nncn2CC1c1cccc(C(F)(F)F)c1` (stereo not drawn) [Compound 2, N-(2-fluorophenyl)-6,7-dihydro-6-[3-(trifluoromethyl)phenyl]-5H-pyrrolo[2,1-c]-1,2,4-triazole-7-carboxamide] was tested. Which “Barnyardgrass plant response rating” value ([1]; 125 g ai/ha) did it give?
**A.** 60

**Q.** And the “Barnyardgrass plant response rating” value ([1]; 500 g ai/ha)?
**A.** 90

**Q.** And the “Foxtail, Giant plant response rating” value ([2]; 125 g ai/ha)?
**A.** 90

**Q.** What about the “Foxtail, Giant plant response rating” value ([2]; 500 g ai/ha) of the same molecule?
**A.** 90

**Q.** What about the “Kochia plant response rating” value (kochia (Kochia scoparia) [3]; 125 g ai/ha) of the same molecule?
**A.** 0

**Q.** What about the “Kochia plant response rating” value (kochia (Kochia scoparia) [3]; 500 g ai/ha) of the same molecule?
**A.** 0

**Q.** What about the “Pigweed plant response rating” value ([4]; 125 g ai/ha) of the same molecule?
**A.** 0

**Q.** And the “Pigweed plant response rating” value ([4]; 500 g ai/ha)?
**A.** 0

**Q.** What about the “Ragweed plant response rating” value ([5]; 125 g ai/ha) of the same molecule?
**A.** 0

**Q.** And the “Ragweed plant response rating” value ([5]; 500 g ai/ha)?
**A.** 0

**Q.** And the “Ryegrass, Italian plant response rating” value ([6]; 125 g ai/ha)?
**A.** 0

**Q.** And the “Ryegrass, Italian plant response rating” value ([6]; 500 g ai/ha)?
**A.** 0

**Q.** What about the “Barnyardgrass plant response rating” value ([7]; 125 g ai/ha) of the same molecule?
**A.** 60

**Q.** What about the “Barnyardgrass plant response rating” value ([7]; 500 g ai/ha) of the same molecule?
**A.** 80

**Q.** What about the “Blackgrass plant response rating” value ([8]; 125 g ai/ha) of the same molecule?
**A.** 40

**Q.** What about the “Blackgrass plant response rating” value ([8]; 500 g ai/ha) of the same molecule?
**A.** 70

**Q.** What about the “Corn plant response rating” value (corn (Zea mays); 125 g ai/ha) of the same molecule?
**A.** 20

**Q.** And the “Corn plant response rating” value (corn (Zea mays); 500 g ai/ha)?
**A.** 40

**Q.** What about the “Foxtail, Giant plant response rating” value ([9]; 125 g ai/ha) of the same molecule?
**A.** 50

**Q.** And the “Foxtail, Giant plant response rating” value ([9]; 500 g ai/ha)?
**A.** 90

**Q.** And the “Galium plant response rating” value ([10]; 125 g ai/ha)?
**A.** 50

**Q.** What about the “Galium plant response rating” value ([10]; 500 g ai/ha) of the same molecule?
**A.** 50

**Q.** And the “Kochia plant response rating” value (kochia (Kochia scoparia) [11]; 125 g ai/ha)?
**A.** 0

**Q.** And the “Kochia plant response rating” value (kochia (Kochia scoparia) [11]; 500 g ai/ha)?
**A.** 30

**Q.** What about the “Pigweed plant response rating” value ([12]; 125 g ai/ha) of the same molecule?
**A.** 0

**Q.** What about the “Pigweed plant response rating” value ([12]; 500 g ai/ha) of the same molecule?
**A.** 10

**Q.** And the “Ragweed plant response rating” value ([13]; 125 g ai/ha)?
**A.** 0

**Q.** And the “Ragweed plant response rating” value ([13]; 500 g ai/ha)?
**A.** 10

**Q.** And the “Ryegrass, Italian plant response rating” value ([14]; 125 g ai/ha)?
**A.** 0

**Q.** And the “Ryegrass, Italian plant response rating” value ([14]; 500 g ai/ha)?
**A.** 50

**Q.** What about the “Wheat plant response rating” value ([15]; 125 g ai/ha) of the same molecule?
**A.** 0

**Q.** What about the “Wheat plant response rating” value ([15]; 500 g ai/ha) of the same molecule?
**A.** 50

**Q.** What about the “Plant response rating, Flood, Barnyardgrass” value ([16]; 500 g ai/ha) of the same molecule?
**A.** 0

**Q.** And the “Plant response rating, Flood, Ducksalad” value ([17]; 500 g ai/ha)?
**A.** 0

**Q.** What about the “Plant response rating, Flood, Rice” value (rice (Oryza sativa); 500 g ai/ha) of the same molecule?
**A.** 0

**Q.** And the “Plant response rating, Flood, Sedge, Umbrella” value ([18]; 500 g ai/ha)?
**A.** 0
